Results: patent publication US12358907B2, “Substituted pyrrolidine amides III” (GRÜNENTHAL GMBH, priority 2019, dated 2025)
Like-named read-outs stand apart in the source and are kept apart here.

Experiments:
[1] = biological target: glucocorticoid receptor (GAL4 DBD-GR) (Homo sapiens (Human), UniProt P04150); assay: GR cell-based assays (GRE agonist / GRE antagonist), CHO-Gal4/GR luciferase reporter
Summary of the method: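 CHO cells stably carrying GAL4 DBD-GR ligand-binding-domain fusion and a GAL4-UAS firefly luciferase reporter were treated in Opti-MEM with 8 half-log concentrations from 10 μM to 0.003 μM (0.5% DMSO, quadruplicates). Antagonist mode measured repression of beclomethasone-induced signal. Luminescence after lysis gave EC50 or IC50.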

[2] = biological target: human glucocorticoid receptor (Homo sapiens (Human), UniProt P04150); assay: Human glucocorticoid receptor (hGR) ligand-binding assay (3H-dexamethasone competition, IM9 cytosol); details: read-out: % inhibition hGR at 1 μM
Protocol: Preferably, the glucocortitcoid receptor extracted from cytosol of IM9 cells is used for competitive radioligand binding assays to calculate percentage inhibition of the binding of radiolabeled ligand 3H-dexamethasone at the human glucocorticoid receptor.
The human lymphoblast cell line IM9 (ATCC, Bethesda, MD) was cultivated in RPMI 1640 media containing 10% fetal bovine serum, penicillin (100 U/ml), streptomycin (100 μg/ml), and 2 mM L-glutamine at 37° and 7% CO2 in a humidified incubator. Cells were centrifuged for 10 minutes at 1500 g and were washed in PBS and repelleted. Cell were then resuspended in homogenization buffer consisting of: 10 mM TES, 10 mM sodium molybdate, 1 mM EDTA, pH 7.4, 20 mM 2-mercaptoethanol, and 10% glycerol. Disruption of the cells was performed by nitrogen cavitation using 2×15 minutes at 600 to 750 psi nitrogen in a N2 cavitator at 0° C. The cell preparation was then centrifuged at 27,000 g for 15 minutes, and the resultant supernatant (=cytosol of IM9 cells) was centrifuged at 103,000 g for 60 minutes at 4° C. The amount of protein in the supernatant fraction was determined using a BCA assay kit and aliquots were snap frozen in a dry ice-acetone bath and stored at −70° C. Competitive binding assays were done in duplicate in homogenization buffer with a total volume of 200 μl. To this end, 1 mg of IM9 cytosol, 0.05 μCi (1.5 nM) of 3H-dexamethasone and unlabeled Example compounds as competitor compounds at 1 μM were mixed. The reaction was stopped after incubation at 0° C. for 16 to 18 hours by the addition of 100 μl of a charcoal-dextran mixture (2% activated charcoal, 0.5% dextran in 10 mM Tris, 1 mM EDTA, pH 7.4). Another incubation step at 0° C. for 10 minutes followed before the samples were centrifuged for 5 minutes at 8200 g. 100 μl of the supernatant) was finally assayed for radioactivity by liquid scintillationspectrometry, and percentage inhibition of 3H-dexamethasone binding was calculated.

Sequence of glucocorticoid receptor (GAL4 DBD-GR) (P04150 524-758): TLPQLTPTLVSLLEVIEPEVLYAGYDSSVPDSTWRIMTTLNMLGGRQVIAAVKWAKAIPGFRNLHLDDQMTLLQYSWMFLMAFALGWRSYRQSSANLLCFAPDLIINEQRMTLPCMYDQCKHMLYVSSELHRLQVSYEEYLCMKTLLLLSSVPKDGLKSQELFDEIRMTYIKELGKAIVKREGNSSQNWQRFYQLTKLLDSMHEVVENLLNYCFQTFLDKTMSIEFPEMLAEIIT
Sequence of human glucocorticoid receptor (P04150 whole entry): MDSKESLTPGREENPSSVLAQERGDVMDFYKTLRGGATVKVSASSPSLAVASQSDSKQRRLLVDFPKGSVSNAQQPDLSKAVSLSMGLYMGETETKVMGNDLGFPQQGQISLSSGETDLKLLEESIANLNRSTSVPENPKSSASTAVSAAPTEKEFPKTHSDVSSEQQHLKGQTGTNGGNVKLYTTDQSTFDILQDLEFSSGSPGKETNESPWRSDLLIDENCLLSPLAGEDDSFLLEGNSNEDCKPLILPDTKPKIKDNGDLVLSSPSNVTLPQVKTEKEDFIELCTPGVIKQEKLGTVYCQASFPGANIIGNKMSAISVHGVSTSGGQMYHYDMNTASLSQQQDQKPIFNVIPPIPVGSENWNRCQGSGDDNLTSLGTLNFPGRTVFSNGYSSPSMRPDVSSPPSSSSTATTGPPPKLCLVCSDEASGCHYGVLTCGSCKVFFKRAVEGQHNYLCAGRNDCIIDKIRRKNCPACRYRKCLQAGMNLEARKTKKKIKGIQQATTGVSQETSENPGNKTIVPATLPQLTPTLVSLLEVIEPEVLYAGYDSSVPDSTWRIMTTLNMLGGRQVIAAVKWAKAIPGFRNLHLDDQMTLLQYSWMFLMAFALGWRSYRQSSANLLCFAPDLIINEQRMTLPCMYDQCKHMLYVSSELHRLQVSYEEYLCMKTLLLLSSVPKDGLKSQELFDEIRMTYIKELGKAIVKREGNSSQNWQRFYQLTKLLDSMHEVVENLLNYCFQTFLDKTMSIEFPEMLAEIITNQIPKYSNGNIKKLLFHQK

IC50 ([1]; read-out: IC50 or EC50) [nM] | inhibition at 1 µM [2] [%] | IC50 ([1]; CHO-Gal4/GR reporter cells, agonist mode (EC50) or antagonist mode against beclometasone (IC50), 6 hour incubation) [nM] | SMILES
< 100 | 98 |  | O=C(N[C@@H]1[C@@H](c2ccccc2)N(c2ccc3c(cnn3-c3ccc(F)cc3)c2)C(=O)C12CC2)C1CC1 (racemic) [Example 3, N-[rac-(6R,7S)-5-[1-(4-Fluorophenyl)-1H-indazol-5-yl]-4-oxo-6-phenyl-5-azaspiro[2.4]heptan-7-yl]-cyclopropanecarboxylic acid amide]
 | 27 |  | Cn1cc(-n2ncc3cc(N4C(=O)C5(CC5)[C@H](NC(=O)C5CC5)[C@H]4c4ccccc4)ccc32)ccc1=O (racemic) [Example 30, N-[rac-(6R,7S)-5-[1-(1-Methyl-6-oxo-1H-pyridin-3-yl)-1H-indazol-5-yl]-4-oxo-6-phenyl-5-azaspiro[2.4]heptan-7-yl]-cyclopropanecarboxylic acid amide]
 | 99 | < 100 | CC1(C)C(=O)N(c2ccc3c(cnn3-c3ccc(F)cc3)c2)[C@H](c2ccccc2)[C@H]1NC(=O)C1CC1 [Example 1, N-[(2R,3S)-1-[1-(4-Fluorophenyl)-1H-indazol-5-yl]-4,4-dimethyl-5-oxo-2-phenyl-pyrrolidin-3-yl]-cyclopropanecarboxylic acid amide]
100 to 1000 | 91 |  | CC1(C)C(=O)N(c2ccc3c(cnn3-c3ccc(F)cc3)c2)[C@@H](c2ccccc2)[C@@H]1NC(=O)C1CC1 [Example 2, N-[(2S,3R)-1-[1-(4-Fluorophenyl)-1H-indazol-5-yl]-4,4-dimethyl-5-oxo-2-phenyl-pyrrolidin-3-yl]-cyclopropanecarboxylic acid amide]
 | 12 |  | Cn1cc(-n2ncc3cc(N4C(=O)C(C)(C)[C@@H](NC(=O)C(C)(F)F)[C@@H]4c4ccccc4)ccc32)ccc1=O [Example 8, N-[(2S,3R)-4,4-Dimethyl-1-[1-(1-methyl-6-oxo-1H-pyridin-3-yl)-1H-indazol-5-yl]-5-oxo-2-phenyl-pyrrolidin-3-yl]-2,2-difluoro-propionamide]
 | 86 |  | Cn1cc(-n2ncc3cc(N4C(=O)C(C)(C)[C@H](NC(=O)C(C)(F)F)[C@H]4c4ccccc4)ccc32)ccc1=O [Example 9, N-[(2R,3S)-4,4-Dimethyl-1-[1-(1-methyl-6-oxo-1H-pyridin-3-yl)-1H-indazol-5-yl]-5-oxo-2-phenyl-pyrrolidin-3-yl]-2,2-difluoro-propionamide]

The next lines start with the compound.

SMILES | IC50 ([1]; read-out: IC50 or EC50) [nM] | inhibition at 1 µM [2] [%] | IC50 ([1]; CHO-Gal4/GR reporter cells, agonist mode (EC50) or antagonist mode against beclometasone (IC50), 6 hour incubation) [nM]
O=C(N[C@@H]1[C@@H](c2ccccc2)N(c2ccc3c(ccn3-c3ccc(F)cc3)c2)C(=O)C12CC2)C1CC1 (racemic) [Example 5, N-trans-(5-(1-(4-fluorophenyl)-1H-indol-5-yl)-4-oxo-6-phenyl-5-azaspiro[2.4]heptan-7-yl)cyclopropanecarboxamide] | 100 to 1000 | 95 | 
CC(F)(F)C(=O)N[C@H]1[C@H](c2ccccc2)N(c2ccc3c(cnn3-c3ccc(F)cc3)c2)C(=O)C1(C)C [Example 4, 2,2-Difluoro-N-[(2S,3R)-1-[1-(4-fluorophenyl)-1H-indazol-5-yl]-4,4-dimethyl-5-oxo-2-phenyl-pyrrolidin-3-yl]-propionamide] | 100 to 1000 | 95 | 
CC(F)(F)C(=O)N[C@@H]1[C@@H](c2ccccc2)N(c2ccc3c(cnn3-c3ccc(F)cc3)c2)C(=O)C1(C)C [Example 10, 2,2-Difluoro-N-[(2R,3S)-1-[1-(4-fluorophenyl)-1H-indazol-5-yl]-4,4-dimethyl-5-oxo-2-phenyl-pyrrolidin-3-yl]-propionamide] |  | 100 | 
Cn1ccc(C(=O)N[C@@H]2[C@@H](c3ccccc3)N(c3ccc4c(cnn4-c4ccc(=O)n(C)c4)c3)C(=O)C2(C)C)n1 [Example 12, N-[(2R,3S)-4,4-Dimethyl-1-[1-(1-methyl-6-oxo-1H-pyridin-3-yl)-1H-indazol-5-yl]-5-oxo-2-phenyl-pyrrolidin-3-yl]-1-methyl-1H-pyrazole-3-carboxylic acid amide] |  | 83 | 
Cn1cc(-n2ncc3cc(N4C(=O)C(C)(C)[C@H](NC(=O)c5cnco5)[C@H]4c4ccccc4)ccc32)ccc1=O [Example 13, N-[(2R,3S)-4,4-Dimethyl-1-[1-(1-methyl-6-oxo-1H-pyridin-3-yl)-1H-indazol-5-yl]-5-oxo-2-phenyl-pyrrolidin-3-yl]-oxazole-5-carboxylic acid amide] |  | 20 | 
Cc1nc(C(=O)N[C@@H]2[C@@H](c3ccccc3)N(c3ccc4c(cnn4-c4ccc(=O)n(C)c4)c3)C(=O)C2(C)C)no1 [Example 14, N-[(2R,3S)-4,4-Dimethyl-1-[1-(1-methyl-6-oxo-1H-pyridin-3-yl)-1H-indazol-5-yl]-5-oxo-2-phenyl-pyrrolidin-3-yl]-5-methyl-[1,2,4]oxadiazole-3-carboxylic acid amide] |  | 84 | 
Cn1cc(-n2ncc3cc(N4C(=O)C(C)(C)[C@H](NC(=O)c5cncs5)[C@H]4c4ccccc4)ccc32)ccc1=O [Example 15, N-[(2R,3S)-4,4-Dimethyl-1-[1-(1-methyl-6-oxo-1H-pyridin-3-yl)-1H-indazol-5-yl]-5-oxo-2-phenyl-pyrrolidin-3-yl]-thiazole-5-carboxylic acid amide] |  | 87 | 
Cc1ncsc1C(=O)N[C@@H]1[C@@H](c2ccccc2)N(c2ccc3c(cnn3-c3ccc(=O)n(C)c3)c2)C(=O)C1(C)C [Example 16, N-[(2R,3S)-4,4-Dimethyl-1-[1-(1-methyl-6-oxo-1H-pyridin-3-yl)-1H-indazol-5-yl]-5-oxo-2-phenyl-pyrrolidin-3-yl]-4-methyl-thiazole-5-carboxylic acid amide] |  | 30 | 
Cn1cc(-n2ncc3cc(N4C(=O)C(C)(C)[C@H](NC(=O)c5cscn5)[C@H]4c4ccccc4)ccc32)ccc1=O [Example 17, N-[(2R,3S)-4,4-Dimethyl-1-[1-(1-methyl-6-oxo-1H-pyridin-3-yl)-1H-indazol-5-yl]-5-oxo-2-phenyl-pyrrolidin-3-yl]-thiazole-4-carboxylic acid amide] |  | 80 | 
Cc1scnc1C(=O)N[C@@H]1[C@@H](c2ccccc2)N(c2ccc3c(cnn3-c3ccc(=O)n(C)c3)c2)C(=O)C1(C)C [Example 18, N-[(2R,3S)-4,4-Dimethyl-1-[1-(1-methyl-6-oxo-1H-pyridin-3-yl)-1H-indazol-5-yl]-5-oxo-2-phenyl-pyrrolidin-3-yl]-5-methyl-thiazole-4-carboxylic acid amide] |  | 29 | 
Cn1cc(-n2ncc3cc(N4C(=O)C(C)(C)[C@@H](NC(=O)c5cnco5)[C@@H]4c4ccccc4)ccc32)ccc1=O [Example 21, N-[(2S,3R)-4,4-Dimethyl-1-[1-(1-methyl-6-oxo-1H-pyridin-3-yl)-1H-indazol-5-yl]-5-oxo-2-phenyl-pyrrolidin-3-yl]-oxazole-5-carboxylic acid amide] |  | 22 | 
Cc1cc(C(=O)N[C@H]2[C@H](c3ccccc3)N(c3ccc4c(cnn4-c4ccc(=O)n(C)c4)c3)C(=O)C2(C)C)no1 [Example 22, N-[(2S,3R)-4,4-Dimethyl-1-[1-(1-methyl-6-oxo-1H-pyridin-3-yl)-1H-indazol-5-yl]-5-oxo-2-phenyl-pyrrolidin-3-yl]-5-methyl-isoxazole-3-carboxylic acid amide] |  | 18 | 
Cn1cc(-n2ncc3cc(N4C(=O)C(C)(C)[C@@H](NC(=O)c5cncs5)[C@@H]4c4ccccc4)ccc32)ccc1=O [Example 24, N-[(2S,3R)-4,4-Dimethyl-1-[1-(1-methyl-6-oxo-1H-pyridin-3-yl)-1H-indazol-5-yl]-5-oxo-2-phenyl-pyrrolidin-3-yl]-thiazole-5-carboxylic acid amide] |  | 12 | 
